Laboratory results taken from a melting point compilation (Tetko et al.; mined from patent text by program, amines drawn as free bases though some values may be those of a salt).

Row | melting point [°C] | SMILES
1 | 177 to 179 | CCN(CC)c1cccc2nc(C(O)c3ccc(Cl)cc3Cl)n(CCO)c12 (stereo not given)
2 | 145 to 146 | Cc1cc(C#N)sc1-c1ccc2c(c1)C(C)(C)OC(C)N2 (stereo not given)
3 | 164 to 168 | CSc1nc(N)nc(N2CCc3ccccc3CC2)c1C#N
4 | 172 to 174 | Cc1c(-c2ccccc2)c(C2=CCNC2)c2oc(C3CC3)nc2c1C#N
5 | 97 to 99 | C=Cc1ccc(CSCCNC(=S)CCC(=O)O)cc1
6 | 150 to 178 | Nc1nc(N)c(CCCNc2ccc(C(=O)N[C@@H](CCC(=O)O)C(=O)O)c(Cl)c2)c(=O)[nH]1
7 | 173 to 174 | CNc1nnc(-c2cccc(F)c2)c(=O)n1NC
8 | 245 to 247 | O=c1c2ccoc2c2cccnc2n1-c1ccccc1
9 | 105 to 110 | Cn1c(C(F)(F)F)cc(=O)n(-c2ccc3snc(C4OCC(O)(CBr)CO4)c3c2)c1=O (stereo not given)
10 | 152 to 153 | CC[C@H](O)C(=O)N1CCC(Oc2cc3ncnc(Nc4cccc(Cl)c4F)c3cc2OC)CC1
11 | 133 | C=CCn1ncc(=O)[nH]c1=O
12 | 221 to 224 | CN(Cc1ccc(NC(=O)C2=Cc3cc(-c4cccc(Cl)c4)ccc3S(=O)(=O)CC2)cc1)C1CCOCC1
13 | 123 to 124 | O=C(SC1CCC1C(=O)N1CCC[C@H]1C(=O)O)c1ccccc1 (stereo not given in full)
14 | 47 to 48 | COC(=O)[C@H](Cc1ccc(OS(=O)(=O)C(F)(F)F)cc1)NC(=O)OC(C)(C)C
15 | 216 to 217 | O=C(O)c1cc(F)c(O)nc1Nc1ccc(F)cc1
16 | 70 to 71 | CC1(C)COc2ccc(C#N)cc21
17 | 148 to 149 | COC(=O)c1ccc2cc(OCc3ccccc3)ccc2c1
18 | 158 to 160 | C/C(=C/C(=O)N(C)O)c1ccn(-c2c(C)cccc2C)c1
19 | 70 to 71 | Cn1nc(-c2ccc(OC(F)(F)F)cc2)cc1CBr

Row | melting point [°C] | SMILES
20 | 79 to 82 | Cc1ccc(C=CC(=O)CCCCCl)cc1
21 | 137 to 138 | COc1nccc2c1C(c1ccccc1C(F)(F)F)C(C(=O)OCCN(C)C)=C(C)N2 (stereo not given)
22 | 155 to 157 | Cc1cccc(-n2cnc(OC(C)C(=O)O)n2)c1 (stereo not given)
23 | 68 to 69 | CCOC(=O)N1CCC(N)(CC#N)CC1
24 | 85 to 86 | OC(COCc1cccnc1)c1ccc2occc2c1 (stereo not given)
25 | 265 to 267 | Cn1cc2c(n1)-c1sccc1N(C(=O)c1ccc(NC(=O)c3ccc(Cl)cc3Cl)cc1)CC2
26 | 56 to 58 | COc1ccc(S(=O)CC(C)=O)cc1 (single isomer, unassigned; (-))
27 | 152 to 153 | NS(=O)(=O)c1cccc2ccccc12
28 | 183 to 184 | O=C(NCCN1C(=O)C2(COc3cc4c(cc32)OCO4)c2ccccc21)c1ccccc1OC(F)(F)F (stereo not given)
29 | 105 to 115 | CCCn1cc(Cc2ccc(C(=O)O)cc2OC)c2cc(CC3CCCN(C)C3=O)ccc21 (stereo not given)
30 | 174 to 178 | COCC(C)NC1=NS(=O)(=O)c2cnccc2N1 (stereo not given)
31 | 127 to 128 | O=C(O)c1ccccc1NCCNc1ccccc1F
32 | 184 to 186 | CN1CCN(CCC#Cc2csc3ncc(C#N)c(Nc4ccc5[nH]ccc5c4)c23)CC1
33 | 264 to 266 | COC(=O)c1ccc(N2C(=O)C(O)=C(C(=O)c3ccc(C)cc3)C2c2ccc(C(C)C)cc2)nc1 (stereo not given)
34 | 208 to 212 | CC(C)(C)OC(=O)N1CCC(c2ccc3[nH]c(-c4ccc(S(C)(=O)=O)cc4F)nc3c2)CC1
35 | 118 to 119 | COc1c(C=NO)ccc2c1OCO2
36 | 190 to 192 | CC(C)(COC(=O)COc1ccc(C(=O)CN2Cc3cc(C#N)ccc3C2=O)cc1)NS(=O)(=O)c1cccnc1
37 | 168 to 169 | CC1Cc2ccccc2CN(CCC(N)=O)C1=O (stereo not given)
38 | 101 | N#Cc1ccccc1C1CNC([N+](=O)[O-])CCN1 (stereo not given)

Row | SMILES | melting point [°C]
39 | Nc1ccc(CCN2CCC(Nc3nc4ccccc4n3Cc3ccc(F)cc3)CC2)cc1 | 195
40 | Cc1cc(C)cc(C(=O)N2CCC(N3CCC(C(=O)O)(c4ccccc4)CC3)CC2Cc2ccccc2)c1 (stereo not given) | 259
